Data: ChEMBL document CHEMBL1201862, “PubChem BioAssay data set” (2004)
The source made the active and inactive calls.

Key:
Format in all cases: functional
Cysteine protease ATG4B = Cysteine protease ATG4B (Homo sapiens, UniProt Q9Y4P1);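 also: Fluorescence-based dose-response confirmation assay measuring inhibition of ATG4B activity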
[1] = toxicity toward HepG2 liver cells – cell-based, plate reader, cherry-pick, antagonist series, cytotoxicity control, dose response (AID 743416)
[2] = cytotoxicity toward MDA-MB-231 breast cancer cells – cell-based, CellTiter-Glo luminescence, cherry-pick, cytotoxicity control for RAD54 inhibitor project, dose response (AID 651692)
[3] = target: T1, Tyrosine-protein phosphatase non-receptor type 22 (Homo sapiens, UniProt Q9Y2R2);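 also: confirmatory dose-response retesting of primary uHTS hits against LYP; potency is for inhibition of phosphatase activity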
T1 sequence (Q9Y2R2 whole entry): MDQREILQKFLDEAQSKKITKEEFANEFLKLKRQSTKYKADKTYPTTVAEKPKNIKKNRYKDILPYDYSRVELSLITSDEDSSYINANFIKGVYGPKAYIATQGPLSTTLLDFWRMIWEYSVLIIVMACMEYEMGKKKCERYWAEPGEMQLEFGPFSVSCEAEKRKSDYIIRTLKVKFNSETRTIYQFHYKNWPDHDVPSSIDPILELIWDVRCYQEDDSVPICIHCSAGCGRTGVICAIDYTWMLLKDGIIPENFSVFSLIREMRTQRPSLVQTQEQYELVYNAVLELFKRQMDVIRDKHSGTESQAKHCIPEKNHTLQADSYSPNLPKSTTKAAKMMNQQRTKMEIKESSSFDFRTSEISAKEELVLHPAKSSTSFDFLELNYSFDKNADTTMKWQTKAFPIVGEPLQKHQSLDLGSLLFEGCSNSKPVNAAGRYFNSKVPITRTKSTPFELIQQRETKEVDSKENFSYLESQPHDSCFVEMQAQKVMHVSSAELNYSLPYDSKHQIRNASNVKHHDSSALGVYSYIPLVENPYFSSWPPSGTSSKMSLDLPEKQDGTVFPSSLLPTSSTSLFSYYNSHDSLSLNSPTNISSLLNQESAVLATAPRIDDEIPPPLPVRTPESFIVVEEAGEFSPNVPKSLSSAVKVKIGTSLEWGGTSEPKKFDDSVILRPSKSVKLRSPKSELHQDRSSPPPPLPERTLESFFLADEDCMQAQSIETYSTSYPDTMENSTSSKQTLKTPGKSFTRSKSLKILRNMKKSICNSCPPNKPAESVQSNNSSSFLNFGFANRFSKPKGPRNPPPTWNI

Caspase-3 = target: T2, Caspase-3 (Homo sapiens, UniProt P42574);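 also: Dose-response selectivity test against caspase-3 for candidate inhibitors of sentrin-specific proteases (SENPs)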
T2 sequence (P42574 whole entry): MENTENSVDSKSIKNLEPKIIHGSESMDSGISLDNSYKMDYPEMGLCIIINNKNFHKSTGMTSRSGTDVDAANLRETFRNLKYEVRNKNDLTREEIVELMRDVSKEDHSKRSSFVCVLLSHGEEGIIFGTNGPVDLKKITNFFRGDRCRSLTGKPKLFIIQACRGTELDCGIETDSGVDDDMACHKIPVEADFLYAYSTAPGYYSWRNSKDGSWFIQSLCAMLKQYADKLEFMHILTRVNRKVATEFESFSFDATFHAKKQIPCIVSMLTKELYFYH

[4] = target: Ribosomal protein S6 kinase beta-1 (Homo sapiens, UniProt P23443);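 also: measured as one member of a kinome-wide profiling panel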
[5] = target: 5'-AMP-activated protein kinase catalytic subunit alpha-1 (Homo sapiens, UniProt Q13131)
[6] = target: MAP kinase-activated protein kinase 5 (Homo sapiens, UniProt Q8IW41);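 also: measured as one member of a kinome panel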
[7] = target: cAMP-dependent protein kinase catalytic subunit PRKX (Homo sapiens, UniProt P51817)
[8] = target: T3, Testis-specific serine/threonine-protein kinase 2 (Homo sapiens, UniProt Q96PF2);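 also: part of the Navigating the Kinome panel, target entry STK22B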
T3 sequence (Q96PF2 whole entry): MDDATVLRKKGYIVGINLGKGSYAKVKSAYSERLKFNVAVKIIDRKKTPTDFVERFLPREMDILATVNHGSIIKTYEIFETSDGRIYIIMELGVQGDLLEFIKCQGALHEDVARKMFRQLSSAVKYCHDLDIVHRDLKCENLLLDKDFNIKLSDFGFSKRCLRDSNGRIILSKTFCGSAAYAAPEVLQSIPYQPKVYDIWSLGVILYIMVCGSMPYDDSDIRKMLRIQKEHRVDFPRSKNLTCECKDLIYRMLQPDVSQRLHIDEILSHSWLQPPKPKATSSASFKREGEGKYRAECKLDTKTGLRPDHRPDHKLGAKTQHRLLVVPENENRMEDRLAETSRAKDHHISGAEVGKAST

[9] = target: Death-associated protein kinase 3 (Homo sapiens, UniProt O43293);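 also: measured as one member of a kinome-wide profiling panel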
[10] = target: Homeodomain-interacting protein kinase 2 (Homo sapiens, UniProt Q9H2X6);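 also: measured within a kinome-wide kinase profiling panel, HIPK2 being one panel member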
[11] = target: MAP/microtubule affinity-regulating kinase 3 (Homo sapiens, UniProt P27448);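 also: MARK3 affinity measured as one member of a kinome panel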
[12] = target: Inhibitor of nuclear factor kappa-B kinase subunit beta (Homo sapiens, UniProt O14920)
[13] = target: RAC-alpha serine/threonine-protein kinase (Homo sapiens, UniProt P31749);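 also: AKT1 affinity measured as one member of a kinome-wide kinase profiling panel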
[14] = target: MAP kinase-activated protein kinase 3 (Homo sapiens, UniProt Q16644);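 also: value comes from a kinome-wide profiling panel in which MAPKAPK3 is one of the panel members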
Aurora kinase B = Aurora kinase B (Homo sapiens, UniProt Q96GD4)
[15] = target: Hepatocyte growth factor receptor (Homo sapiens, UniProt P08581);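 also: kinase panel profiling across the kinome, with MET as the panel member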
[16] = target: MAP kinase-activated protein kinase 2 (Homo sapiens, UniProt P49137);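 also: measured as one member of a kinome-wide kinase panel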
[17] = target: cGMP-dependent protein kinase 1 (Homo sapiens, UniProt Q13976);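 also: value from a kinome panel screen with PRKG1 as the panel member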
Ephrin type-A receptor 2 = Ephrin type-A receptor 2 (Homo sapiens, UniProt P29317);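 also: EPHA2 tested as one member of a kinome-wide kinase panel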
[18] = target: Cyclin-dependent kinase 5 (Homo sapiens, UniProt Q00535);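 also: CDK5 measured as one member of a kinase profiling panel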
[19] = target: Cyclin-dependent kinase 2 (Homo sapiens, UniProt P24941);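 also: CDK2 measured as one member of a broad kinome profiling panel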
[20] = target: Vascular endothelial growth factor receptor 3 (Homo sapiens, UniProt P35916);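 also: value from a kinome-wide profiling panel, with FLT4 as the panel member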
[21] = target: Dual specificity protein kinase CLK4 (Homo sapiens, UniProt Q9HAZ1)
LIM domain kinase 1 = LIM domain kinase 1 (Homo sapiens, UniProt P53667); assay: Navigating the Kinome. Panel member name: LIMK1
[22] = target: Serine/threonine-protein kinase PAK 4 (Homo sapiens, UniProt O96013);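 also: value obtained within a kinome profiling panel in which PAK4 was one of the panel members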

Sequence of Cysteine protease ATG4B (Q9Y4P1 whole entry): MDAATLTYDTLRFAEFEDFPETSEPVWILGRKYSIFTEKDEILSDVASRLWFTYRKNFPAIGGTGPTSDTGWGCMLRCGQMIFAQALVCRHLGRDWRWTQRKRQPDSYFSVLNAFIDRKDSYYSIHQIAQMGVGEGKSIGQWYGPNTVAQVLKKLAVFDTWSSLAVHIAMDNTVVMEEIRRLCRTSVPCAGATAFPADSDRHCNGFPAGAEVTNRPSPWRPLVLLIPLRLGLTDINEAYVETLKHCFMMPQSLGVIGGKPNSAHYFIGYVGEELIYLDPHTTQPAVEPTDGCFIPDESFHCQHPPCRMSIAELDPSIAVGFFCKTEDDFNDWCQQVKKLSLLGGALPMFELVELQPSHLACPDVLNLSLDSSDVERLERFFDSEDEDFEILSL
Sequence of MAP kinase-activated protein kinase 3 (Q16644 whole entry): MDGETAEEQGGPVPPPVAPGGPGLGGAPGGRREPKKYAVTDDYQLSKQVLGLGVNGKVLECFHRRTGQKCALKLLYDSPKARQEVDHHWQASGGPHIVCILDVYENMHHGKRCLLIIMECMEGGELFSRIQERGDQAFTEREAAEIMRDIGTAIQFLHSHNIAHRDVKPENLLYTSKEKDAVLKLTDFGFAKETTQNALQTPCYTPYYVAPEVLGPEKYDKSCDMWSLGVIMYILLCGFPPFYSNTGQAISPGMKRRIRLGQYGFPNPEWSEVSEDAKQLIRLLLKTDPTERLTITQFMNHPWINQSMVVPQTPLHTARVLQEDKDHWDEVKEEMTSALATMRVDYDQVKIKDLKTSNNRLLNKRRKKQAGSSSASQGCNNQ
Sequence of Death-associated protein kinase 3 (O43293 whole entry): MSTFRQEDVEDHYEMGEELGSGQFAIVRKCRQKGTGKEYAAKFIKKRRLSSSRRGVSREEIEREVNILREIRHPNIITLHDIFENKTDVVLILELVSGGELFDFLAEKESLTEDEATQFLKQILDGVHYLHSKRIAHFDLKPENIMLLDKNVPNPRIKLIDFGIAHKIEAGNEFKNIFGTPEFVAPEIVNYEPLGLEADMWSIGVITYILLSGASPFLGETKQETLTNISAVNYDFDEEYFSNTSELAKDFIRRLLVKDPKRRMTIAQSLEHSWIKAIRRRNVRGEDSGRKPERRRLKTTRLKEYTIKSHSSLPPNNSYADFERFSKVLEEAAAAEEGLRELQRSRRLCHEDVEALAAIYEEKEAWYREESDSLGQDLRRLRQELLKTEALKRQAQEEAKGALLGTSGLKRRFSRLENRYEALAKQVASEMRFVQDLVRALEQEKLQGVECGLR
Sequence of Aurora kinase B (Q96GD4 whole entry): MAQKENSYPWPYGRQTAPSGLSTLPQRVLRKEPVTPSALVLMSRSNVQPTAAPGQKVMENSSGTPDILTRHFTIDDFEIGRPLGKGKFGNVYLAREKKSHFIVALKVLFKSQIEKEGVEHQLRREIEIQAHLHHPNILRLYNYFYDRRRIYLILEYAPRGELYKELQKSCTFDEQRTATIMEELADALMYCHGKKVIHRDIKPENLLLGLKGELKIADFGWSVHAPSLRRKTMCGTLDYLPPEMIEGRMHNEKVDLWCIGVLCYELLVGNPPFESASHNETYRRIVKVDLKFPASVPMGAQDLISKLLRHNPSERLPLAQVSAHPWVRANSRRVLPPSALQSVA
Sequence of Hepatocyte growth factor receptor (P08581 whole entry): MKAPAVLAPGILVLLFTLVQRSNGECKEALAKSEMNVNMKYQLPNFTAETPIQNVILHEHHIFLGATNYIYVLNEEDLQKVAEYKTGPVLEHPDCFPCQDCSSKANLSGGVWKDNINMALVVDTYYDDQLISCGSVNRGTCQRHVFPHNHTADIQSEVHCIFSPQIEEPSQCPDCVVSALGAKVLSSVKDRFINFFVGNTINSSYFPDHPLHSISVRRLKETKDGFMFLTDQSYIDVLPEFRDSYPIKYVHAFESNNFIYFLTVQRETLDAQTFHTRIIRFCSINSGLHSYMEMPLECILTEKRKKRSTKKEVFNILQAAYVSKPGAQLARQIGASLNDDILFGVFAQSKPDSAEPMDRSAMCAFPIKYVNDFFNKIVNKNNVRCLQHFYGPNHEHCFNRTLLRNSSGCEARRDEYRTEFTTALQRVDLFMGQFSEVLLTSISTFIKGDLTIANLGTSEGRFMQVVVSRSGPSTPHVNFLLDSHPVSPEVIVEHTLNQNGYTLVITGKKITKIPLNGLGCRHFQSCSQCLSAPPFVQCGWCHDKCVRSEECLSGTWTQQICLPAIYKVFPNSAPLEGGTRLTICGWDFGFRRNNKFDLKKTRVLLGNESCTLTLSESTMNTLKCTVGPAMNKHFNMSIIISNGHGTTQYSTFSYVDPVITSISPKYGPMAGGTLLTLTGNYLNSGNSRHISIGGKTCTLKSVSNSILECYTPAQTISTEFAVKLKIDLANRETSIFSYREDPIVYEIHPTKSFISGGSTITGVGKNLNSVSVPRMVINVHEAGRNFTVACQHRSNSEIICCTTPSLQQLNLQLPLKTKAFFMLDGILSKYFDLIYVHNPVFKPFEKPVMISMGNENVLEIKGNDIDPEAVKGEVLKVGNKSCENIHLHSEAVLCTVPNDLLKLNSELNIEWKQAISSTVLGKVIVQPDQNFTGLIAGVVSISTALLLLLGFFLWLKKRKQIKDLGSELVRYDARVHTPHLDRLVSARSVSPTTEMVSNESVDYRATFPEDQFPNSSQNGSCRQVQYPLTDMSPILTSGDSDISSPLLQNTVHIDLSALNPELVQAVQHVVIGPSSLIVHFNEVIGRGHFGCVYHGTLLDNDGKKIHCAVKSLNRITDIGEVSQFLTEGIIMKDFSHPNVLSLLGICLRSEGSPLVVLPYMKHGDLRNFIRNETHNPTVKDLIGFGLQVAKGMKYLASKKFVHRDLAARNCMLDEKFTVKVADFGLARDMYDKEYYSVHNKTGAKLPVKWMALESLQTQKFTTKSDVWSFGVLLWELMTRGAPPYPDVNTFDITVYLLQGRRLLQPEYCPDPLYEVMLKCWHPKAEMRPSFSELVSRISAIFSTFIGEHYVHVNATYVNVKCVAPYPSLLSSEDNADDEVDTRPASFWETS
Sequence of Ribosomal protein S6 kinase beta-1 (P23443 whole entry): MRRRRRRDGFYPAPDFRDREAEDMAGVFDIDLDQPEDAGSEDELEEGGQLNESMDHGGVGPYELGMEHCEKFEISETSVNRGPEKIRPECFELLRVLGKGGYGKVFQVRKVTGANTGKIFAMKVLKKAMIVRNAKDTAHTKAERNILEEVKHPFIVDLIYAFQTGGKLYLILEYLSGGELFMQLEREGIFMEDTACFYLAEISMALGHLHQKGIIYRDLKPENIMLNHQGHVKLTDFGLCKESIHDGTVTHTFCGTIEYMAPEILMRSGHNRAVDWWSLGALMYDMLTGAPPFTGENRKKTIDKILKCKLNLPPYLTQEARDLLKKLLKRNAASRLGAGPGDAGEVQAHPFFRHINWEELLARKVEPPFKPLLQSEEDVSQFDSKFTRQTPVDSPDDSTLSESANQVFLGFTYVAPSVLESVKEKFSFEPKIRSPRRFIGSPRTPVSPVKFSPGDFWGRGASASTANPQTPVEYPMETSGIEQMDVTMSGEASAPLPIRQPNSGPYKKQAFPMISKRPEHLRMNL
Sequence of MAP kinase-activated protein kinase 5 (Q8IW41 whole entry): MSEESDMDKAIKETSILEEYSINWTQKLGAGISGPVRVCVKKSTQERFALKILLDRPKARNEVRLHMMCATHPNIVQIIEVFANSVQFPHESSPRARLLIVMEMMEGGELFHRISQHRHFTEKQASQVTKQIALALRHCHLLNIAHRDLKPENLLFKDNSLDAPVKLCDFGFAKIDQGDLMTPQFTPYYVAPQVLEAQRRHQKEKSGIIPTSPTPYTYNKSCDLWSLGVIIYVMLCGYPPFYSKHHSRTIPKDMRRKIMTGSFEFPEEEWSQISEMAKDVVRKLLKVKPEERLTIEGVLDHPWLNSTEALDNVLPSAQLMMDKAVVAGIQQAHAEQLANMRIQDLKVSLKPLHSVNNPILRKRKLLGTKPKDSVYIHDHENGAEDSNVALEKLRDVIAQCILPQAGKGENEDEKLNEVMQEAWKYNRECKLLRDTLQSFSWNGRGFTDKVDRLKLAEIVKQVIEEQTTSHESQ
Sequence of cAMP-dependent protein kinase catalytic subunit PRKX (P51817 whole entry): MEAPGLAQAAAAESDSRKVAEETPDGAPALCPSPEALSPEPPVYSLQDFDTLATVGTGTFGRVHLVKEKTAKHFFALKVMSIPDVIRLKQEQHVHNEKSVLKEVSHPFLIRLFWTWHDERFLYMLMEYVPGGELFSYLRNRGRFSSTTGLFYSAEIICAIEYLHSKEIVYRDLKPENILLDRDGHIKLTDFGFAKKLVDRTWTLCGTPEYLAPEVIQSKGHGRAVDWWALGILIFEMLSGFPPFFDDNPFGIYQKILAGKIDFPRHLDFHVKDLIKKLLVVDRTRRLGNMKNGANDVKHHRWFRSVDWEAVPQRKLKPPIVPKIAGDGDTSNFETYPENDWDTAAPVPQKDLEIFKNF
Sequence of Cyclin-dependent kinase 5 (Q00535 whole entry): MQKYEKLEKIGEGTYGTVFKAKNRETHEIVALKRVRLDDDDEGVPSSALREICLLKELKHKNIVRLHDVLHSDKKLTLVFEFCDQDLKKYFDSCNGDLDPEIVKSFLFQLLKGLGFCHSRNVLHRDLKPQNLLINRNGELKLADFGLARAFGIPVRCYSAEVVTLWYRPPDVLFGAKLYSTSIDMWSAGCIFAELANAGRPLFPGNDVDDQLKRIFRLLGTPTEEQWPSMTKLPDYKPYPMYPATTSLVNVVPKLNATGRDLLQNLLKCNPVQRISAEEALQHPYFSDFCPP

CCCc1nc2c(=O)n(C)c(=O)nc-2n(C)n1
IC50 (Cysteine protease ATG4B): 2.84 µM (active)
AC50 [1]: 3.39 µM (active)
AC50 [2]: 2.71 µM (active)
IC50 [3]: 1.78 µM (active)

CC(=O)c1ccc(NC2=C(N3CCOCC3)C(=O)c3ccccc3C2=O)cc1
IC50 (Caspase-3): 30 µM (active)

COc1cc2ncn(-c3cc(OCc4ccccc4C(F)(F)F)c(C(N)=O)s3)c2cc1OC [GW843682X]
Ki [4]: > 6.31 µM (inactive)
Ki [5]: > 5.01 µM (inactive)
Ki [6]: 0.0631 µM (active)
Ki [7]: 1 µM (active)
Ki [8]: 0.0631 µM (active)
Ki [9]: > 1.26 µM (inactive)
Ki [10]: > 3.16 µM (inactive)
Ki [11]: > 6.31 µM (inactive)
Ki [12]: > 3.16 µM (inactive)
Ki [13]: > 7.94 µM (inactive)
Ki [14]: > 10 µM (inactive)
Ki (Aurora kinase B): > 6.31 µM (inactive)
Ki [15]: > 3.16 µM (inactive)
Ki [16]: > 7.94 µM (inactive)
Ki [17]: 0.316 µM (active)
Ki (Ephrin type-A receptor 2): > 3.16 µM (inactive)
Ki [18]: > 10 µM (inactive)
Ki [19]: > 7.94 µM (inactive)
Ki [20]: 0.1 µM (active)
Ki [21]: 0.398 µM (active)
Ki (LIM domain kinase 1): 7.94 µM (active)
Ki [22]: > 5.01 µM (inactive)
